# Experiments:
# Type in all cases: cell-based
# [1] = test system: cultured cells of Taxus baccata LINN; assay: Taxane-type diterpene yield and cell yield, shake culture of Taxus baccata cells with a jasmonic acid (or jasmone) added; conditions: for taxol inducing activity: see Comparative Example No. 24
# [2] = test system: cultured cells of Taxus baccata LINN; assay: Growth rate and taxane yield, shake culture under controlled oxygen concentration in the gas phase, with or without methyl jasmonate; conditions: max oxygen in gas phase 10%; for yield of baccatin III / yield of cephalomannine / yield of taxol: cell + medium
# Description: One gram (fresh weight) of the callus was inoculated to an Erlenmeyer flask containing 20 ml of liquid Woody Plant Medium to which the above-mentioned component had been added to give the same concentration and shake culture was carried out with a rotary shaker (amplification of 25 mm, 100 rpm) and the callus was subcultured in every 21 days to accelerate the growth rate of the callus.
# One gram (fresh weight) of the cultured cells thus obtained was inoculated to an Erlenmeyer flask containing 20 ml of liquid Woody Plant Medium to which the above-mentioned component had been added to give the same concentration, and the flask was placed in a chamber (the capacity of 3000 ml) having a gas feed opening and a gas discharge opening, then the chamber was closed hermetically, and air was so mixed with nitrogen that the concentration of the oxygen in a gas to be supplied to the cells to be cultured became 4-15%, and while the gas was supplied through the feed opening at the rate of 25 ml per minute, shake culture was carried out at 25° C. for 21 days.
# After completing the culture, cultured cells of Taxus baccata LINN were harvested by filtration and lyophilized, then the dry weight was measured to obtain the growth rate thereof. Taxane-type diterpenes were extracted from the dried cells with methanol and the like, and they were determined by comparing with standard taxol, cephalomannine, and baccatin III using high performance liquid chromatography to measure the yields of the taxane-type diterpenes.
# [3] = test system: cultured cells of Taxus baccata LINN; assay: Two-stage culture: first stage with potassium peroxodisulfate, second stage with methyl jasmonate; cell yield and taxol yield; conditions: for yield of cells, second stage of the culture / yield of taxol, second stage of the culture: second stage with methyl jasmonate 100 μM on the 14th day; for content of taxol, first stage of the culture / yield of cells, first stage of the culture: added 1st day
# Description: After completing the culture, the cultured cells were harvested by filtration and a part of the cells were used as seed cells for the second stage of the culture and the rest of the cells were subjected to the measurement of the cell yield and the taxane content in the cells. Accordingly, 1 g (fresh weight) of the cultured cells were inoculated to an Erlenmeyer flask containing 20 ml of liquid Woody Plant Medium to which naphthalenacetic acid had been added to give the concentration of 10^−5M and shake culture was carried out at 25° C. for 14 days. On the 14th day of the culture, methyl jasmonate was added to the medium to give the concentration in the medium of 100 μM and the culture was further continued for another 7 days. On the other hand, the rest of the cells obtained in the first stage of the culture were lyophilized, then the dry weight was measured to obtain the cell yield thereof per liter of the liquid medium. The content of taxol in the dried cells was measured by high performance liquid chromatography. The yield of the cells and the yield of taxol were measured for the cells obtained by second stage of the culture in the same manner as that for the cells obtained in the first stage of the culture.
# [4] = 0.01 μM added on 14th day, 7 more days
# [5] = 0.1 μM added on 14th day, 7 more days
# [6] = 1 μM added on 14th day, 7 more days
# [7] = 10 μM added on 14th day, 7 more days
# [8] = 50 μM added on 14th day, 7 more days
# [9] = 100 μM added on 14th day, 7 more days
# [10] = 250 μM added on 14th day, 7 more days
# [11] = 500 μM added on 14th day, 7 more days
# [12] = 1000 μM added on 14th day, 7 more days
# [13] = first stage with potassium peroxodisulfate 5 × 10^−3M
# [14] = first stage with potassium peroxodisulfate 5 × 10^−4M
# [15] = first stage with potassium peroxodisulfate 10^−3M
# [16] = first stage with potassium peroxodisulfate 10^−4M
# [17] = first stage with potassium peroxodisulfate 10^−5M
# [18] = potassium peroxodisulfate 5 × 10^−3M in the medium
# [19] = potassium peroxodisulfate 5 × 10^−4M in the medium
# [20] = potassium peroxodisulfate 10^−3M in the medium
# [21] = potassium peroxodisulfate 10^−4M in the medium
# [22] = potassium peroxodisulfate 10^−5M in the medium
compound,measurement,setting,value
CCC=CCC1=C(C)CCC1=O [Comparative Example 24],cell yield,[1]; jasmone 0.1 μM,12.2 g/L
same,yield of baccatin III,"[1]; jasmone 0.1 μM, cell + medium",0.3 mg/L
same,yield of cephalomannine,"[1]; jasmone 0.1 μM, cell + medium",1.2 mg/L
same,yield of taxol,"[1]; jasmone 0.1 μM, cell + medium",3.0 mg/L
same,cell yield,[1]; jasmone 1 μM,12.1 g/L
same,yield of baccatin III,"[1]; jasmone 1 μM, cell + medium",0.4 mg/L
same,yield of cephalomannine,"[1]; jasmone 1 μM, cell + medium",1.0 mg/L
same,yield of taxol,"[1]; jasmone 1 μM, cell + medium",3.2 mg/L
same,cell yield,[1]; jasmone 10 μM,11.3 g/L
same,yield of baccatin III,"[1]; jasmone 10 μM, cell + medium",0.3 mg/L
same,yield of cephalomannine,"[1]; jasmone 10 μM, cell + medium",0.8 mg/L
same,yield of taxol,"[1]; jasmone 10 μM, cell + medium",3.3 mg/L
same,cell yield,[1]; jasmone 100 μM,11.3 g/L
same,yield of baccatin III,"[1]; jasmone 100 μM, cell + medium",0.3 mg/L
same,yield of cephalomannine,"[1]; jasmone 100 μM, cell + medium",0.6 mg/L
same,yield of taxol,"[1]; jasmone 100 μM, cell + medium",3.2 mg/L
same,cell yield,[1]; jasmone 1000 μM,10.9 g/L
same,yield of baccatin III,"[1]; jasmone 1000 μM, cell + medium",0.2 mg/L
same,yield of cephalomannine,"[1]; jasmone 1000 μM, cell + medium",0.8 mg/L
same,yield of taxol,"[1]; jasmone 1000 μM, cell + medium",2.5 mg/L
CC/C=C\C[C@H]1C(=O)CC[C@@H]1CC(=O)O [jasmonic acid],cell yield,[1]; [4],12.2 g/L
same,yield of baccatin III,[1]; [4],0.3 mg/L
same,yield of cephalomannine,[1]; [4],0.6 mg/L
same,yield of taxol,[1]; [4],2.2 mg/L
same,cell yield,[1]; [5],12.2 g/L
same,yield of baccatin III,[1]; [5],0.3 mg/L
same,yield of cephalomannine,[1]; [5],0.6 mg/L
same,yield of taxol,[1]; [5],3.4 mg/L
same,cell yield,[1]; [6],11.6 g/L
same,yield of baccatin III,[1]; [6],0.3 mg/L
same,yield of cephalomannine,[1]; [6],0.8 mg/L
same,yield of taxol,[1]; [6],5.9 mg/L
same,cell yield,[1]; [7],11.5 g/L
same,yield of baccatin III,[1]; [7],0.5 mg/L
same,yield of cephalomannine,[1]; [7],2.6 mg/L
same,yield of taxol,[1]; [7],8.3 mg/L
same,cell yield,[1]; [8],11.4 g/L
same,yield of baccatin III,[1]; [8],2.5 mg/L
same,yield of cephalomannine,[1]; [8],2.2 mg/L
same,yield of taxol,[1]; [8],10.2 mg/L
same,cell yield,[1]; [9],10.3 g/L
same,yield of baccatin III,[1]; [9],7.2 mg/L
same,yield of cephalomannine,[1]; [9],3.0 mg/L
same,yield of taxol,[1]; [9],12.8 mg/L
same,cell yield,[1]; [10],10.1 g/L
same,yield of baccatin III,[1]; [10],10.6 mg/L
same,yield of cephalomannine,[1]; [10],2.7 mg/L
same,yield of taxol,[1]; [10],14.7 mg/L
same,cell yield,[1]; [11],10.2 g/L
same,yield of baccatin III,[1]; [11],12.0 mg/L
same,yield of cephalomannine,[1]; [11],1.1 mg/L
same,yield of taxol,[1]; [11],11.1 mg/L
same,cell yield,[1]; [12],6.7 g/L
same,yield of baccatin III,[1]; [12],1.2 mg/L
same,yield of cephalomannine,[1]; [12],0.5 mg/L
same,yield of taxol,[1]; [12],1.2 mg/L
"CC/C=C\CC1=C(C)CCC1=O [jasmone, reference compound]",taxol inducing activity,[1],low
CCC=CCC1C(=O)CCC1CC(=O)OC (stereo not drawn) [Example 66],growth rate,[2]; methyl jasmonate 10 μM,2.82 times
same,total yield of taxane,[2]; methyl jasmonate 10 μM,14.73 mg/L
same,yield of baccatin III,[2]; methyl jasmonate 10 μM,2.26 mg/L
same,yield of cephalomannine,[2]; methyl jasmonate 10 μM,1.73 mg/L
same,yield of taxol,[2]; methyl jasmonate 10 μM,10.24 mg/L
same,growth rate,[2]; methyl jasmonate 100 μM,2.45 times
same,total yield of taxane,[2]; methyl jasmonate 100 μM,36.05 mg/L
same,yield of baccatin III,[2]; methyl jasmonate 100 μM,11.32 mg/L
same,yield of cephalomannine,[2]; methyl jasmonate 100 μM,2.29 mg/L
same,yield of taxol,[2]; methyl jasmonate 100 μM,22.44 mg/L
same,growth rate,[2]; methyl jasmonate 1000 μM,1.47 times
same,total yield of taxane,[2]; methyl jasmonate 1000 μM,8.61 mg/L
same,yield of baccatin III,[2]; methyl jasmonate 1000 μM,2.10 mg/L
same,yield of cephalomannine,[2]; methyl jasmonate 1000 μM,1.47 mg/L
same,yield of taxol,[2]; methyl jasmonate 1000 μM,5.04 mg/L
O=S(=O)([O-])OOS(=O)(=O)[O-].[K+].[K+] [Example 77],"yield of cells, second stage of the culture",[3]; [13],12.1 g/L
same,"yield of taxol, second stage of the culture",[3]; [13],11.7 ppm
same,"yield of cells, second stage of the culture",[3]; [14],14.4 g/L
same,"yield of taxol, second stage of the culture",[3]; [14],16.3 ppm
same,"yield of cells, second stage of the culture",[3]; [15],13.0 g/L
same,"yield of taxol, second stage of the culture",[3]; [15],13.6 ppm
same,"yield of cells, second stage of the culture",[3]; [16],15.0 g/L
same,"yield of taxol, second stage of the culture",[3]; [16],20.4 ppm
same,"yield of cells, second stage of the culture",[3]; [17],15.6 g/L
same,"yield of taxol, second stage of the culture",[3]; [17],14.0 ppm
same,"content of taxol, first stage of the culture",[3]; [18],45 ppm
same,"yield of cells, first stage of the culture",[3]; [18],14.0 g/L
same,"content of taxol, first stage of the culture",[3]; [19],183 ppm
same,"yield of cells, first stage of the culture",[3]; [19],15.5 g/L
same,"content of taxol, first stage of the culture",[3]; [20],84 ppm
same,"yield of cells, first stage of the culture",[3]; [20],15.2 g/L
same,"content of taxol, first stage of the culture",[3]; [21],250 ppm
same,"yield of cells, first stage of the culture",[3]; [21],16.2 g/L
same,"content of taxol, first stage of the culture",[3]; [22],97 ppm
same,"yield of cells, first stage of the culture",[3]; [22],17.1 g/L
methyl jasmone [reference compound],taxol inducing activity,[1],low

# Reference: patent US6403343B2, “Method of producing a taxane-type diterpene and a method of obtaining cultured cells which produce the taxane-type dilterpene at a high rate” (Mitsui Chemicals, Inc., priority 1993, dated 2002)
